Experimental data: ChEMBL document CHEMBL5223100, “Homobivalent, Trivalent, and Covalent PROTACs: Emerging Strategies for Protein Degradation” (J Med Chem, 2022)

How the values were obtained:
Protein cereblon = Protein cereblon (Homo sapiens, UniProt Q96SW2); assay: Displacement of dBET6 from CRBN (unknown origin) transfected in BRD4 BD2-GFP mCherry report cells incubated for 5 hrs
Protein fem-1 homolog B = Protein fem-1 homolog B (Homo sapiens, UniProt Q9UK73); assay: Binding affinity to FEM1B (unknown origin)
[1] = target: T1, Bromodomain-containing protein 4 (Homo sapiens, UniProt O60885); assay: Induction of BRD4 degradation in HEK293 cells assessed as maximum degradation after 8 hrs relative to control; format: cell-based
[2] = target: T1, Bromodomain-containing protein 4; assay: Induction of BRD4 degradation in 231MFP cells; format: cell-based
[3] = target: T1, Bromodomain-containing protein 4; assay: Induction of BRD4 degradation in HEK293 cells after 8 hrs; format: cell-based
[4] = target: Serine/threonine-protein kinase Sgk3 (Homo sapiens, UniProt Q96BR1); assay: Induction of SGK3 degradation in HEK293 cells; format: cell-based
[5] = target: T2, Phosphatidylinositol 3-kinase catalytic subunit type 3 (Homo sapiens, UniProt Q8NEB9); assay: Induction of VPS34 degradation in HEK293 cells assessed as maximum degradation at 300 nM after 48 hrs relative to control; format: cell-based
[6] = target: Serine/threonine-protein kinase Sgk3 (Homo sapiens) (UniProt Q96BR1); assay: Induction of SGK3 degradation in HEK293 cells assessed as maximum degradation after 30 mins relative to control; format: cell-based
[7] = target: Serine/threonine-protein kinase Sgk3 (Homo sapiens) (UniProt Q96BR1); assay: Induction of SGK3 degradation in HEK293 cells assessed as maximum degradation at 300 nM after 48 hrs relative to control; format: cell-based
[8] = target: T2, Phosphatidylinositol 3-kinase catalytic subunit type 3; assay: Induction of VPS34 degradation in HEK293 cells assessed as maximum degradation after 30 mins relative to control; format: cell-based
[9] = target: T2, Phosphatidylinositol 3-kinase catalytic subunit type 3; assay: Induction of VPS34 degradation in HEK293 cells; format: cell-based
[10] = Induction of hRpn13Pru degradation in human RPMI-8226 cells; format: cell-based
RPMI-8226 [11] = assay: Induction of hRpn13Pru degradation in human RPMI-8226 cells assessed as maximum degradation at 50 uM relative to control; format: cell-based
RPMI-8226 [12] = assay: Antiproliferative activity against human RPMI-8226 cells; format: functional, cell-based
HEK293 = assay: Induction of HaloTag7 fused GFP degradation in HEK293 cells assessed as maximum degradation relative to control; format: cell-based; details: Homo sapiens
[13] = Induction of HaloTag7 fused GFP degradation in HEK293 cells; format: cell-based; details: Homo sapiens
[14] = target: von Hippel-Lindau disease tumor suppressor (Homo sapiens, UniProt P40337); assay: Binding affinity to VHL (unknown origin)
[15] = target: T1, Bromodomain-containing protein 4; assay: Induction of BRD4 short isoform degradation in human 231MFP cells; format: cell-based
[16] = target: T1, Bromodomain-containing protein 4; assay: Induction of BRD4 long isoform degradation in human 231MFP cells; format: cell-based
[17] = target: E3 ubiquitin-protein ligase RNF114 (Homo sapiens, UniProt Q9Y508); assay: Binding affinity to RNF114 (unknown origin)
[18] = target: T3, Tyrosine-protein kinase BTK (Homo sapiens, UniProt Q06187); assay: Induction of BTK degradation in human MOLM-14 cells assessed as maximum degradation at 200 nM relative to control; format: cell-based
[19] = Antiproliferative activity against human MINO cells; format: functional, cell-based
MOLM-14 = assay: Antiproliferative activity against human MOLM-14 cells; format: functional, cell-based
[20] = target: T3, Tyrosine-protein kinase BTK; assay: Induction of BTK degradation in human MOLM-14 cells; format: cell-based
[21] = Induction of HCV NS3 degradation after 4 hrs; parameters: species or system Hepacivirus hominis
[22] = target: Hepatitis C virus serine protease, NS3/NS4A (Hepatitis C virus, UniProt A3EZI9+D2K2A8); assay: Inhibition of HCV NS3/4a protease in Huh7.5 SGR cells using [Ac-DE-D(Edans)-EE-Abu-[COO]AS-K(Dabcyl)-NH2] as substrate preincubated for 15 mins followed by substrate addition and incubated for 1 hr by FRET assay; format: cell-based, Hepacivirus hominis
Hepatitis C virus [23] = assay: Antiviral activity against wild type HCV; format: functional, organism-based, Hepacivirus hominis
Hepatitis C virus [24] = assay: Antiviral activity against HCV harboring NS3 V55A mutant; format: functional, organism-based, Hepacivirus hominis
PC-3 = assay: Antiproliferative activity against human PC-3 cells after 72 hrs; format: functional, cell-based; details: PC-3, 72 h
[25] = target: Cyclin-dependent kinase 9 (Homo sapiens) (UniProt P50750); assay: Induction of CDK9 degradation in human MOLT-4 cells assessed as maximum degradation after 16 hrs relative to control; format: cell-based
CWR22R = assay: Antiproliferative activity against human 22Rv1 cells after 72 hrs; format: functional, cell-based; details: 22Rv1, 72 h

## C=CC(=O)N1CCN(c2nc(NCCCN3CCN(CCCNc4cccc5c4C(=O)N(C4CCC(=O)NC4=O)C5=O)CC3)nc3c(F)c(-c4cc(O)cc5ccccc45)c(Cl)cc23)CC1 (stereo unspecified)
Protein cereblon
  EC50: 79 nM

## Cc1sc2c(c1C)C(c1ccc(Cl)cc1)=N[C@@H](CC(=O)NCCCCCNC(=O)CN1CCOc3cc(N(CCC#N)C(=O)CCl)ccc31)c1nnc(C)n1-2
Protein fem-1 homolog B
  IC50: 1500 nM
[1]
  Emax: 94%
[2]
  DC50: 198 nM
[3]
  DC50: 250 nM

## Cc1ncsc1-c1ccc(CNC(=O)[C@@H]2C[C@@H](O)CN2C(=O)[C@@H](NC(=O)C2(C#N)CC2)C(C)(C)C)c(OCCOCCOCCOCCCCCCCl)c1
[4]
  DC50: 3 nM
[5]
  Emax: 95%
[6]
  Emax: 50%
[7]
  Emax: 95%
[8]
  Emax: 50%
[9]
  DC50: 3 nM

## Cc1ncsc1-c1ccc([C@H](C)NC(=O)[C@@H]2C[C@@H](O)CN2C(=O)[C@@H](NC(=O)CCCCc2cn(-c3ccc(C(=O)Nc4cccc(/C=C(\C#N)C(=O)Nc5ccccc5C(=O)O)c4)cc3)nn2)C(C)(C)C)cc1
[10]
  DC50: 39000 nM
RPMI-8226 [11]
  Emax: 80%
RPMI-8226 [12]
  IC50: 4200 nM

## Cc1ncsc1-c1ccc(CNC(=O)[C@@H]2C[C@@H](O)CN2C(=O)[C@H](C(C)C)N2Cc3ccccc3C2=O)c(OCCOCCOCCOCCCCCCCl)c1
HEK293
  Emax: 90%
[13]
  DC50: 19 nM
[14]
  IC50: 540 nM

## Cc1sc2c(c1C)C(c1ccc(Cl)cc1)=N[C@@H](CC(=O)NCCCCOc1ccc(C3CC(c4ccc(Br)cc4)=NN3C(=O)CCl)cc1)c1nnc(C)n1-2 (stereo partly specified)
[15]
  DC50: 14 nM
[16]
  DC50: 36 nM

## COC(=O)C[C@H]1[C@]2(C)C3=C(C)[C@H](c4ccoc4-c4ccc(C(=O)NCCCNC(=O)C[C@@H]5N=C(c6ccc(Cl)cc6)C6C(C)=C(C)SC6n6c(C)nnc65)cc4)C[C@H]3O[C@@H]2C2OC(=O)[C@]3(C)C=CC(=O)[C@@]1(C)[C@@H]23 (stereo partly specified)
[17]
  IC50: 240 nM

## CN(CCCNC(=O)CNc1cccc2c1C(=O)N(C1CCC(=O)NC1=O)C2=O)C(C)(C)/C=C(\C#N)C(=O)N1CCC[C@@H](n2nc(-c3ccc(Oc4ccccc4)cc3)c3c(N)ncnc32)C1 (stereo partly specified)
[18]
  Emax: 81%
[19]
  IC50: 80 nM
MOLM-14
  IC50: 300 nM
[20]
  DC50: 6.6 nM

## CCC[C@H](NC(=O)[C@@H]1[C@H]2CCC[C@H]2CN1C(=O)[C@@H](NC(=O)[C@@H](NC(=O)c1cnc(C(=O)NCCOCCOCCOc2cc3c4c(cccc4c2)C(=O)N(C2CCC(=O)NC2=O)C3=O)cn1)C1CCCCC1)C(C)(C)C)C(=O)C(=O)NC1CC1 (stereo partly specified)
[21]
  DC50: 50 nM
[22]
  IC50: 247 nM
Hepatitis C virus [23]
  IC50: 558 nM
Hepatitis C virus [24]
  IC50: 508 nM

## COc1cc(/C=C/C(=O)N2CCC=CC2=O)cc(OC)c1OCCN1CCN(C(=O)CN2CCC(C(=O)Nc3ncc(SCc4ncc(C(C)(C)C)o4)s3)CC2)CC1
PC-3
  EC50: 6.4 nM
[25]
  Emax: 96%
CWR22R
  EC50: 4.4 nM
